Data reported in patent US20220281848A1, “PYRAZOLE-SUBSTITUTED PYRROLIDINONES AS HERBICIDES” (FMC Corporation, priority 2019, published 2022).

Tested on: plants
Test: Test D pre-emergence, other plants of Tables D1 and D3
Type: in vivo
Conditions: for damage to plant, ALOMY / damage to plant, AVEFA / damage to plant, BEAVA / damage to plant, BROTE / damage to plant, BRSNN / damage to plant, CHEAL / damage to plant, GALAP / damage to plant, HORVW / damage to plant, KCHSC / damage to plant, LOLPE / damage to plant, POAAN / damage to plant, POLCO / damage to plant, SINAR / damage to plant, STEME / damage to plant, VERPE: pre-emergence, 100=total damage, 0=no damage
In short: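 Damage was rated visually from 0 (none) to 100 (total), at 20 DAA for pre-emergence and 15 d for post-emergence. Plants grew from safener-treated seed in a glasshouse at 24/18° C. or 20/16° C. day/night, 65% humidity, watered twice daily.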

CN1CC(c2cc(C(F)(F)F)n(C)n2)C(C(=O)Nc2ccc(F)c(F)c2F)C1=O (racemic) [Compound 17]
0: damage to plant (100=total damage to plant; 0=no damage to plant), SORVU (SORVU, preemergent, rate 500, 20 DAA) | damage to plant, ALOMY (rate 15, 20 DAA) | damage to plant, AVEFA (rate 15, 20 DAA) | damage to plant, BEAVA (rate 15, 20 DAA) | damage to plant, BROTE (rate 15, 20 DAA) | damage to plant, BRSNN (rate 15, 20 DAA) | damage to plant, CHEAL (rate 15, 20 DAA) | damage to plant, GALAP (rate 15, 20 DAA) | damage to plant, HORVW (rate 15, 20 DAA) | damage to plant, KCHSC (rate 15, 20 DAA) | damage to plant, LOLPE (rate 15, 20 DAA) | damage to plant, POAAN (rate 15, 20 DAA) | damage to plant, POLCO (rate 15, 20 DAA) | damage to plant, SINAR (rate 15, 20 DAA) | damage to plant, STEME (rate 15, 20 DAA) | damage to plant, VERPE (rate 15, 20 DAA) | damage to plant, ALOMY (rate 30, 20 DAA) | damage to plant, AVEFA (rate 30, 20 DAA) | damage to plant, BEAVA (rate 30, 20 DAA) | damage to plant, BROTE (rate 30, 20 DAA) | damage to plant, BRSNN (rate 30, 20 DAA) | damage to plant, CHEAL (rate 30, 20 DAA) | damage to plant, GALAP (rate 30, 20 DAA) | damage to plant, HORVW (rate 30, 20 DAA) | damage to plant, KCHSC (rate 30, 20 DAA) | damage to plant, LOLPE (rate 30, 20 DAA) | damage to plant, POLCO (rate 30, 20 DAA) | damage to plant, SINAR (rate 30, 20 DAA) | damage to plant, STEME (rate 30, 20 DAA) | damage to plant, VERPE (rate 30, 20 DAA) | damage to plant, ALOMY (rate 60, 20 DAA) | damage to plant, AVEFA (rate 60, 20 DAA) | damage to plant, BEAVA (rate 60, 20 DAA) | damage to plant, BROTE (rate 60, 20 DAA) | damage to plant, BRSNN (rate 60, 20 DAA) | damage to plant, GALAP (rate 60, 20 DAA) | damage to plant, HORVW (rate 60, 20 DAA) | damage to plant, KCHSC (rate 60, 20 DAA) | damage to plant, POLCO (rate 60, 20 DAA) | damage to plant, SINAR (rate 60, 20 DAA) | damage to plant, STEME (rate 60, 20 DAA) | damage to plant, VERPE (rate 60, 20 DAA) | damage to plant, BEAVA (rate 130, 20 DAA) | damage to plant, BROTE (rate 130, 20 DAA) | damage to plant, BRSNN (rate 130, 20 DAA) | damage to plant, GALAP (rate 130, 20 DAA) | damage to plant, KCHSC (rate 130, 20 DAA) | damage to plant, POLCO (rate 130, 20 DAA) | damage to plant, SINAR (rate 130, 20 DAA) | damage to plant, BEAVA (rate 250, 20 DAA) | damage to plant, BRSNN (rate 250, 20 DAA) | damage to plant, GALAP (rate 250, 20 DAA) | damage to plant, SINAR (rate 250, 20 DAA) | damage to plant, SINAR (rate 500, 20 DAA)
60: damage to plant, AVEFA (rate 130, 20 DAA) | damage to plant, ALOMY (rate 250, 20 DAA) | damage to plant, CHEAL (rate 250, 20 DAA) | damage to plant, VERPE (rate 250, 20 DAA) | damage to plant, BROTE (rate 500, 20 DAA) | damage to plant, STEME (rate 500, 20 DAA)
40: damage to plant, LOLPE (rate 130, 20 DAA) | damage to plant, BROTE (rate 250, 20 DAA) | damage to plant, HORVW (rate 250, 20 DAA)
80: damage to plant, LOLPE (rate 250, 20 DAA) | damage to plant, POAAN (rate 250, 20 DAA) | damage to plant, ALOMY (rate 500, 20 DAA) | damage to plant, AVEFA (rate 500, 20 DAA) | damage to plant, LOLPE (rate 500, 20 DAA)
10: damage to plant, HORVW (rate 130, 20 DAA) | damage to plant, STEME (rate 130, 20 DAA) | damage to plant, KCHSC (rate 250, 20 DAA) | damage to plant, BEAVA (rate 500, 20 DAA)
30: damage to plant, POAAN (rate 60, 20 DAA) | damage to plant, VERPE (rate 130, 20 DAA) | damage to plant, STEME (rate 250, 20 DAA) | damage to plant, KCHSC (rate 500, 20 DAA) | damage to plant, POLCO (rate 500, 20 DAA)
90: damage to plant, HORVW (rate 500, 20 DAA) | damage to plant, POAAN (rate 500, 20 DAA) | damage to plant, VERPE (rate 500, 20 DAA)
70: damage to plant, POAAN (rate 130, 20 DAA) | damage to plant, AVEFA (rate 250, 20 DAA) | damage to plant, CHEAL (rate 500, 20 DAA)
50: damage to plant, ALOMY (rate 130, 20 DAA) | damage to plant, CHEAL (rate 130, 20 DAA)
20: damage to plant, POAAN (rate 30, 20 DAA) | damage to plant, LOLPE (rate 60, 20 DAA) | damage to plant, POLCO (rate 250, 20 DAA) | damage to plant, BRSNN (rate 500, 20 DAA) | damage to plant, GALAP (rate 500, 20 DAA)
